Reference: PMC3969094 (Journal of Medicinal Chemistry, 2014)
Positions of bridges follow the written chain, without caps; N, C: chain ends. Non-standard residues stand in square brackets, D forms with d. Residues, ends and D or L forms follow the SMILES beside them. *: point of attachment. FITC = O=C1OC2(c3ccc(O)cc3Oc3cc(O)ccc32)c2ccc(NC(=S)*)cc21; Phe(3,4-Cl2) = N[C@@H](Cc1ccc(Cl)c(Cl)c1)C(=O)O; S5 = C=CCCC[C@](C)(N)C(=O)O; Ahx = NCCCCCC(=O)O

Columns and labels:
[1] = target: RPA70N (Homo sapiens, UniProt P27694); assay: FPA direct binding of FITC-labeled peptides; settings: stapled peptides, versus phenylalanine counterparts
[2] = target: RPA70C/32D/14; assay: Direct binding FPA assay, selectivity; settings: read-out: Kd for RPA70C/32D/14, FITC-labeled stapled peptide

CC(C)C[C@H](NC(=O)[C@H](C)NC(=O)[C@H](Cc1ccc(Cl)c(Cl)c1)NC(=O)[C@H](Cc1c[nH]c2ccccc12)NC(=O)[C@]1(C)CCCC=CCCC[C@](C)(NC(=O)[C@H](C)NC(=O)[C@@H](NC(=O)[C@H](Cc2ccccc2)NC(=O)[C@H](CC(N)=O)NC(=O)CCCCCNC(=S)Nc2ccc3c(c2)C(=O)OC32c3ccc(O)cc3Oc3cc(O)ccc32)[C@@H](C)O)C(=O)N[C@@H](CC(=O)O)C(=O)N[C@@H](CC(C)C)C(=O)N[C@@H](CCC(=O)O)C(=O)N1)C(N)=O [Peptide-38] ({FITC-Ahx}-NFTA[S5]DLE[S5]W[Phe(3,4-Cl2)]AL-NH2; staple 5-9)
increase in affinity by dichlorophenylalanine substitution [1]: 31 fold

CC(C)C[C@H](NC(=O)[C@H](C)NC(=O)[C@H](Cc1ccc(Cl)c(Cl)c1)NC(=O)[C@H](Cc1c[nH]c2ccccc12)NC(=O)[C@]1(C)CCCC=CCCC[C@](C)(NC(=O)[C@H](C)NC(=O)[C@@H](NC(=O)[C@H](Cc2ccccc2)NC(=O)[C@H](CC(N)=O)NC(=O)CCCCCNC(=S)Nc2ccc3c(c2)C(=O)OC32c3ccc(O)cc3Oc3cc(O)ccc32)[C@@H](C)O)C(=O)N[C@@H](CC(N)=O)C(=O)N[C@@H](CC(C)C)C(=O)N[C@@H](CCC(=O)O)C(=O)N1)C(N)=O [Peptide-39] ({FITC-Ahx}-NFTA[S5]NLE[S5]W[Phe(3,4-Cl2)]AL-NH2; staple 5-9)
Kd [2]: 2.4 µM | increase in affinity by dichlorophenylalanine substitution [1]: 175 fold
